What is called pIC50 is the negative decadic logarithm of the IC50, by convention in mol/L. Read a high pIC50 as a low IC50. As a reminder, the pKd is the negative decadic logarithm of the Kd, by convention in mol/L. The low end stands for a high Kd, the high end for a low Kd.

The structures appear in SMILES notation. pIC50, pKd: −log10 of the molar value.

One experiment relates to Nucleic Acid. Put plainly: Inhibitory concentration against cell-free bacterial transcription / translation (T/T) assay. Type of experiment: functional.
The target in the next experiment is Ribosomal RNA A-site. Put plainly: Dissociation constant against 16S rRNA A-site. Type of experiment: nucleic-acid assay.

In the experiment with Nucleic Acid, `NC1C[C@@H](N)[C@@H](O)C(O)[C@H]1OCSc1ccnc2cc(C(F)(F)F)ccc12` (stereo not given in full) showed a pIC50 of under 4.30. The compound further gave a pKd at Ribosomal RNA A-site of 4.46.
In the same order, the values of `COc1ccc(CO[C@H]2C(N)C[C@@H](N)[C@@H](O)C2O)cc1` (stereo not given in full) are under 4.30 and 3.50.
For `COc1ccc(CO[C@H]2C(N)C[C@@H](N)[C@@H](O)C2OCCNCCCN)cc1` (stereo not given in full) the same measures were under 4.30 and 5.00.
For the compound `CN(C)CCCNC(=O)COC1[C@@H](OCSc2ccnc3cc(C(F)(F)F)ccc23)C(N)C[C@@H](N)[C@H]1O` (stereo not given in full), the pIC50 with Nucleic Acid was under 4.30. Further, the negative logarithm of the Kd (pKd) at Ribosomal RNA A-site is 4.06.
As for `NCCCNCCOC1[C@@H](OCSc2ccnc3cc(C(F)(F)F)ccc23)C(N)C[C@@H](N)[C@H]1O` (stereo not given in full), the negative-log IC50 (pIC50) in the experiment with Nucleic Acid is 5.68. On Ribosomal RNA A-site, this compound gave a negative logarithm of the Kd (pKd) of 5.70.
The compound `NCCCNCCO[C@H]1C(O)[C@@H](OCSc2ccnc3cc(C(F)(F)F)ccc23)C(N)C[C@H]1N` (stereo not given in full) showed a pIC50 with Nucleic Acid of 4.82. Besides, the negative logarithm of the Kd (pKd) on Ribosomal RNA A-site is 5.82.
On to `CN(C)CCCNC(=O)CO[C@H]1C(O)[C@@H](OCSc2ccnc3cc(C(F)(F)F)ccc23)C(N)C[C@H]1N` (stereo not given in full), for which the pIC50 in the experiment on Nucleic Acid was under 4.30. The pKd at Ribosomal RNA A-site was 3.62.
In the experiment on Nucleic Acid, `COc1ccc(CO[C@H]2C(N)C[C@@H](N)[C@@H](OCCNCCCN)C2O)cc1` (stereo not given in full) showed a negative logarithm of the IC50 (pIC50) of under 4.30. Moreover, the pKd on Ribosomal RNA A-site is 4.57.
As to `NC[C@H]1O[C@H](O[C@H]2[C@H](O)[C@@H](O)[C@H](N)C[C@@H]2N)[C@H](N)[C@@H](O)[C@@H]1O` [NEAMINE], the negative-log IC50 (pIC50) with Nucleic Acid was under 4.30. The same compound had a pKd at Ribosomal RNA A-site of 5.30.
`NC[C@@H]1O[C@H](O[C@H]2[C@@H](O)[C@H](O[C@@H]3[C@@H](O)[C@H](N)C[C@H](N)[C@H]3O[C@H]3O[C@H](CO)[C@@H](O)[C@H](O)[C@H]3N)O[C@@H]2CO)[C@H](N)[C@@H](O)[C@@H]1O` [PAROMOMYCIN] showed a negative logarithm of the IC50 (pIC50) with Nucleic Acid of 6.22. The compound further showed a pKd on Ribosomal RNA A-site of 7.00.

The values above are taken from ChEMBL document CHEMBL1143486, “The synthesis and 16S A-site rRNA recognition of carbohydrate-free aminoglycosides” (Bioorg Med Chem Lett, 2005).
